Measured values reported in PMC8802628, “Selective activation of PFKL suppresses the phagocytic oxidative burst” (Cell, 2021).

How the values were obtained:
[1] = molecular target: T1, PFKL (K315R, V545L, and V582M), PFKL3Mut (Homo sapiens, UniProt P17858, K315R/V545L/V582M); experiment: Recombinant PFKL3Mut activity assay; format: biochemical; conditions: for activation of PFKL3Mut: 3.1 mM ATP, 1.5 mM F6P
T1 construct: made in house; host or cells: Sf9 insect cells (baculovirus)
T1 sequence (P17858 1-780 K315R/V545L/V582M): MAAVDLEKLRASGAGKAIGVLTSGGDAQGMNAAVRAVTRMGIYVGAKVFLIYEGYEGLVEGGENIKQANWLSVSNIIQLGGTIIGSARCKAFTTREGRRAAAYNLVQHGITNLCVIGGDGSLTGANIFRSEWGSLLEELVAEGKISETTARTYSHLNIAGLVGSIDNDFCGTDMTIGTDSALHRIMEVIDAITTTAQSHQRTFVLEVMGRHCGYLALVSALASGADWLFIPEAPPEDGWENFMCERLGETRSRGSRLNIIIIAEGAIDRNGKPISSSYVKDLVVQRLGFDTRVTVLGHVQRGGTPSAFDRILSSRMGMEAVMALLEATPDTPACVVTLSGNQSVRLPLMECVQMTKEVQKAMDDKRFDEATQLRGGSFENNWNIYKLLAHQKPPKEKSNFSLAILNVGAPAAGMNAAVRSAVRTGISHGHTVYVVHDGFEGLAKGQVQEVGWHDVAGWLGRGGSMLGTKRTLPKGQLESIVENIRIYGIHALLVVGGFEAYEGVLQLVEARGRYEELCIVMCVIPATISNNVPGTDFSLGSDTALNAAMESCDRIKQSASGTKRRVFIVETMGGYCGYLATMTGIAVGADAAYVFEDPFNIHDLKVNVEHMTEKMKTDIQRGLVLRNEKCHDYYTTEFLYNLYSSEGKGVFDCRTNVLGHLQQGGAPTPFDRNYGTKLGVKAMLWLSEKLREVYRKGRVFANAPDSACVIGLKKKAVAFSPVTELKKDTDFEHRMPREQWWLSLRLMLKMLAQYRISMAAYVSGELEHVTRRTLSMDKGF
From the text: (§1) Recombinant N-terminal His-tagged human PFKL (NP_002617), PFKM (NP_000280), and PFKP (NM_002627.4) were generated as described ([Webb et al., 2015], [2017]). Point mutants of PFK1 were generated using the QuikChange Lightning kit (Aligent).
His-tagged PFK1 was expressed and purified as described with slight modifications ([Webb et al., 2015], [2017]). Briefly, baculovirus was generated using the Bac-to-Bac Expression system (Invitrogen). PFK1 was expressed in 2-5 × 10^6 sf9 cells at a multiplicity of infection of two for 48 h. Cells were lysed in 20 mM HEPES, pH 7.5, 80 mM potassium phosphate, 1 mM 2-mercapentoethanol, 10% glycerol, 10 mM imidazole, and EDTA-free Protease Inhibitor Cocktail (Abcam) with a Dounce homogenizer. The soluble lysate was incubated with HisPur cobalt resin (ThermoFisher Scientific). The resin was washed with 5 bead volumes lysis buffer, 10 bead volumes lysis buffer containing 2 M NaCl, and 5 further bead volumes lysis buffer. PFK1 was eluted in lysis buffer containing 100 mM imidazole. Fractions containing protein were pooled, passed over a desalting column equilibrated in freezing buffer [20 mM HEPES pH 7.5, 1 mM DTT, 500 μM ammonium sulfate, 5% glycerol, 1 mM ATP, and 100 μM EDTA] and concentrated using an Amicon Ultracel-30K Centrifugal Filter Unit (MilliporeSigma). Protein was quantified using a Bradford Protein Assay kit (ThermoFisher Scientific), and aliquotes frozen in liquid nitrogen for storage at −80°C.
PFK1 activity was determined using the rate of FBP production via an auxiliary enzyme assay adapted to a 96-well format ([Brüser et al., 2012]; [Webb et al., 2015]). The auxiliary enzymes aldolase, triosephosphate isomerase, and glycerol phosphate dehydrogenase were purchased from MilliporeSigma as ammonium sulfate slurries and desalted using an Amicon Ultracel-10K Centrifugal Filter Unit. For assays containing FBP, the rate of ADP production was determined using the auxiliary enzymes pyruvate kinase (PK) and lactate dehydrogenase (LDH) (MilliporeSigma) in a buffer containing 250 μM phosphoenolpyruvic acid, […] NADH, 50 mM HEPES pH 7.5, 100 mM KCl, 1 mM DTT, and effector concentrations as described in the text. The temperature was equilibrated to 25°C for 5 min before initiating the reaction 10 mM MgCl2. Absorbance at 340 nm was measured using a Varioskan LUX Multimode microplate reader (ThermoFisher). Kinetic parameters were generated by nonlinear regression analysis using Prism (GraphPad Software) and are the mean of a minimum of three measurements from two independent preparations of protein. One unit of activity was defined as the amount of enzyme that catalyzed the formation of 1 μmol of fructose 1,6-bisphosphate per min at 25°C. Assays for PFKM were performed at pH 7.0 due to the pH-dependence of ATP inhibition ([Trivedi and Danforth, 1966]).

[2] = test system: human peripheral blood neutrophils; experiment: NETosis assay in human neutrophils (SYTOX Green, DNA area); format: cell-based
human PFKP = molecular target: T2, human PFKP (Homo sapiens, UniProt Q01813); experiment: Recombinant PFKP activity assay; format: biochemical; conditions: at concentrations up to 100 μM
T2 construct: made in house; host or cells: Sf9 insect cells (baculovirus)
T2 sequence (Q01813 whole entry): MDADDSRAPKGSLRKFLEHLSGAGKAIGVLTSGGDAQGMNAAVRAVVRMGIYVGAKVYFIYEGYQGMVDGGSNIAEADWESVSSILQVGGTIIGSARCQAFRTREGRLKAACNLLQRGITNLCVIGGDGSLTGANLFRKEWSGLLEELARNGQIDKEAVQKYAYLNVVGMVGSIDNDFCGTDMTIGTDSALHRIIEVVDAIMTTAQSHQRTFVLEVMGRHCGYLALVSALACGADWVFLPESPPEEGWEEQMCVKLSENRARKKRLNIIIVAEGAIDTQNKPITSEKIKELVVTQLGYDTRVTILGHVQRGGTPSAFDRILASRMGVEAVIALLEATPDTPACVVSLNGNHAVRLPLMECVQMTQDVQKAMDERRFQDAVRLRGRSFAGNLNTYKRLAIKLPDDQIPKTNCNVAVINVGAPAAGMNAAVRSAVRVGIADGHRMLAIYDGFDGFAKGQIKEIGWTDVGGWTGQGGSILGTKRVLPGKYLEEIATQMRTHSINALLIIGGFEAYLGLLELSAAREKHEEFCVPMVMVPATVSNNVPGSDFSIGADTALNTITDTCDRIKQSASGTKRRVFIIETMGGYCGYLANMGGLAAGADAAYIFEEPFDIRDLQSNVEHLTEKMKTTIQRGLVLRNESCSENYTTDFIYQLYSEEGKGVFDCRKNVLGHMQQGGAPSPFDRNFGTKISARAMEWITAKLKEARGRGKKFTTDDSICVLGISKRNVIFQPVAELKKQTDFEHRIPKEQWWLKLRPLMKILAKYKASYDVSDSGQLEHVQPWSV
From the text: as §1
His-tagged PFK1 was expressed and purified as described with slight modifications ([Webb et al., 2015], [2017]). Briefly, baculovirus was generated using the Bac-to-Bac Expression system (Invitrogen). PFK1 was expressed in 2-5 × 10^6 sf9 cells at a multiplicity of infection of two for 48 h. […] Protein was quantified using a Bradford Protein Assay kit (ThermoFisher Scientific), and aliquotes frozen in liquid nitrogen for storage at −80°C.
PFK1 activity was determined using the rate of FBP production via an auxiliary enzyme assay adapted to a 96-well format ([Brüser et al., 2012]; [Webb et al., 2015]). […] For assays containing FBP, the rate of ADP production was determined using the auxiliary enzymes pyruvate kinase (PK) and lactate dehydrogenase (LDH) (MilliporeSigma) in a buffer containing 250 μM phosphoenolpyruvic acid, […] NADH, 50 mM HEPES pH 7.5, 100 mM KCl, 1 mM DTT, and effector concentrations as described in the text. […] Absorbance at 340 nm was measured using a Varioskan LUX Multimode microplate reader (ThermoFisher). […]

PMNs = experiment: Phagocytosis of zymosan particles by PMNs; format: cell-based, human; conditions: neutrophils, zymosan 2 h
Procedure: Figure S7. NA-11 activates PFKL to prevent the oxidative burst and impair neutrophil defenses, related to Figures 4 and 6
(A) PFK1 activity in PMN lysates. Cells were pretreated with 0.5 mM NA-11, 5 mM LDC7559, 100 mM apocynin, 200 mM thionicotinamid e (TN), 1 mM MEK inhibitor U0126, or DMSO vehicle for 30 min, or 1 mM proteasome inhibitor bortezomib for 1 h, and then activated with 50 nM PMA for 30 min where indicated. Bars represent the mean ± s.d. of cells from 3 donors. (B) NADH:NAD+ ratio in PMA-activated PMNs. Cells were pretreated with 0.5 mM NA-11 or DMSO vehicle for 30 min, and then activated with 50 nM PMA for 30 min. Data are the mean ± s.d. of cells from 3 donors. (C) Immunolabeling of citrullinated histone H3 (magenta) and myeloperoxidase (red) in PMNs pretreated with 0.5 mM NA-11 or DMSO vehicle for 30 min and then stimulated for 4 h with 50 nM PMA, 10 mg/mL extracellular LPS, 0.5 mg/mL cholesterol crystals, or 25 mM nigericin. Chromatin is stained green. Scale bar, […]. Results are representative of 3 independent experiments.
(D) Fluorescence micrographs of PMNs pretreated with 0.5 mM NA-11, 200 mM thionicotinamide (TN), 0.5 mM NA-4, or DMSO vehicle for 30 min, and then incubated with serum-opsonized Texas Red-conjugated zymosan particles (10 mg/mL) for 2 h. […]

Row | Compound | Vmax,F6P ([1]; PFKL3Mut, pH 7.5, 225 μM ATP) | hF6P (Hill coefficient) ([1]; PFKL3Mut, pH 7.5, 225 μM ATP) | NETosis in response to PMA ([2]; 10 μM compound, compared with DMSO vehicle) | activation of PFKP (human PFKP) | activation of PFKL3Mut ([1]; at 200 nM) | activation of PFKL3Mut ([1]; at 1 μM) | phagocytosis (intracellular zymosan particles) (PMNs) | time of addition after PMA up to which NETosis was inhibited ([2]; compound added after PMA-induced activation)
1 | O=C(CO)[C@@H](O)[C@H](O)[C@H](O)COP(=O)(O)O [F6P, fructose 6-phosphate] | 17.36 ± 0.87 micromoles FBP per minute per milligram PFK1 | 3.07 ± 0.87 |  |  |  |  |  | 
2 | COc1ccccc1-c1cc2n(n1)Cc1ccc(NC(C)=O)cc1OC2 [LDC7559, reference compound] |  |  | defective NETosis | failed to activate |  |  |  | 
3 | CC(=O)Nc1ccc2c(c1)OCc1cc(-c3ccccc3C#CCCCO)nn1C2 [NA-11] |  |  |  | failed to activate | no activation observed | only partial activation observed | neither NA-11 nor TN affected phagocytosis | up to 1 h
